Counter-ions that a name gives are not always drawn.
Columns and labels:
DLD-1 = experiment: MTS assay, DLD-1; type: cell-based; settings: Homo sapiens, DLD-1, 72 h
Description: (§1) Cells were maintained at 37° C., 5% CO2 in RPMI media supplemented with 1% fetal bovine serum, penicillin/streptomycin and fungizone (Invitrogen). Cells were seeded into 96-well tissue culture plates at 3000 per well and cultured at 37° C. for 18 h. Test compounds were dissolved and diluted to 300× in DMSO then diluted 1:40 in DMEM. Cells were incubated with test compounds for 72 hours followed by incubation with tetrazolium compound (3-(4,5-dimethylthiazol-2-yl)-5-(3-carboxymethoxyphenyl)-2-(4-sulfophenyl)-2H-tetrazolium, inner salt; MTS) and the electron coupling reagent, phenazine methosulfate (PMS) for 4 hours. […] The ability of compounds to inhibit cell growth in this assay is correlated with the reduction of dehydrogenase enzyme activity found in metabolically active cells. The measurement of the absorbance of the formazan was assessed using an ENVISION™ (Perkin Elmer) microplate reader at 492 nm. The calculated IC50 value is the concentration of the test compound that causes a 50% decrease in the absorbance.

FGFR2 (N549H) = biological target: T1, FGFR2 (N549H) (Homo sapiens, UniProt P21802, N549H); experiment: FGFR2 kinase activity assay (fluorescent ELISA); type: biochemical
T1 construct: purchased Millipore 14-742
T1 sequence (P21802 22-821 N549H): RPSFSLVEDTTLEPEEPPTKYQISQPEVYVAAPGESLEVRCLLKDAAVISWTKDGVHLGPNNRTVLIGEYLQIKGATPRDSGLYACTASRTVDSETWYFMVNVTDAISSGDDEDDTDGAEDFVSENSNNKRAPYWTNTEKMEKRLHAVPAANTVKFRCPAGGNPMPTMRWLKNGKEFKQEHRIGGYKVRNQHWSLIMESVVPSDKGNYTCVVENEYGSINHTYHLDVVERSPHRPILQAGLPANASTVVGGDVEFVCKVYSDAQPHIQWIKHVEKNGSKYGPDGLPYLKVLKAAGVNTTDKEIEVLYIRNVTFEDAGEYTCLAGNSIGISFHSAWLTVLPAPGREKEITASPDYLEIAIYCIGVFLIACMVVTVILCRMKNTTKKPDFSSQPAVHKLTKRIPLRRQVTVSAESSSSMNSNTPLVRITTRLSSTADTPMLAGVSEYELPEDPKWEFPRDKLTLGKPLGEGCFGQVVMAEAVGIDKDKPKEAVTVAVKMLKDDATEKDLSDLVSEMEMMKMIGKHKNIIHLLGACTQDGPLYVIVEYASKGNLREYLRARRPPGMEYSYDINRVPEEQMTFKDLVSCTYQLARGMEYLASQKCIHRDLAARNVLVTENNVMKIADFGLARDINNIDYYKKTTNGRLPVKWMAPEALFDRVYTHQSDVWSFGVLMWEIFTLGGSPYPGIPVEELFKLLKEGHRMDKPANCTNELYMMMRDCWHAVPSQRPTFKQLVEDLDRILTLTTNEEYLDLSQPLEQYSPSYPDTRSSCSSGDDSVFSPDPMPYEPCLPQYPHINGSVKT
Description: The enzymatic assays described herein are conducted according to the following procedures from commercially available reagents. In one, non limiting, example, a fluorescent ELISA assay is used to identify and characterize inhibitors of FGFR2 kinase as described herein. This heterogeneous assay utilizes a biotinylated peptide with a tyrosine motif as a substrate and an anti-phospho-tyrosine antibody to measure phosphorylation of the substrate. The reaction is initiated by adding the test compound, 37 μM Pyk2 substrate (Midwest Biotech, Cat. # MBT2383), 12.5 μM ATP (Roche, Cat. #11 140 965 001) and 0.5 μM FGFR2 enzyme (Millipore, Cat. #14-742) sequentially to a non-binding polypropylene V-well plate. All reagents are in an assay buffer consisting of: 50 mM Tris-HCL, 0.02 mg/ml BSA, 10 mM MgCl2, 0.1 mM Na3VO4, 1 mM EGTA, 75 μM ATP, 0.01% NP-40, 2 mM DTT and 10% glycerol. The reaction is incubated for 60 minutes. As the reaction proceeds, FGFR2 phosphorylates tyrosines in the peptide. The reaction mixture is then moved to a blocked streptavidin-coated Nunc Maxisorb plate (coated with 100 ng streptavidin from Pierce (Cat. #15-124) per well), allowing for the capture of the biotinylated peptide. Peptides are captured for 30 minutes at room temperature, the phosphorylation of peptides continues during this phase. The reaction is stopped by washing the streptavidin-coated plate 6 times with TBST. Phosphorylated peptide is detected by adding anti-phospho-tyrosine antibody (Cell Signaling, Cat. #9411, diluted 1:3000) to the streptavidin-coated plate. Unbound anti-phospho-tyrosine antibody is removed by washing the streptavidin-coated plate 6 times with TBST. Secondary detection is performed using alkaline phosphatase tagged goat anti-mouse antibody (Pierce, Cat. #31320, diluted 1:4000) for one hour. Unbound secondary antibody is removed by washing the streptavidin-coated plate 6 times with TBST. The fluorescent readout is initiated by adding to the streptavidin-coated plate Promega Attophos substrate (Promega, Cat. # S1000, dilution=6 mg/10 ml), which, when dephosphorylated by alkaline phosphatase, emits a fluorescent signal of 595 nm in wavelength when excited by a signal of 400 nm in wavelength. The reading of the 595 nm signal is done on the Perkin Elmer Envision system. Compounds which prevent FGFR2 from phosphorylating the peptide result in a lower fluorescent signal. The 595 nm fluorescent signal is directly proportional to the activity of FGFR2. Thus, the inhibition of FGFR2 by compounds is monitored by the decrease in the 595 nm fluorescent signal.

MDA-MB-231 = experiment: MTS assay, MDA-MB-231; type: cell-based; settings: Homo sapiens, MDA-MB-231, 72 h
Description: as §1

Abl (T315I) = Abl (T315I) (Homo sapiens, UniProt P00519, T315I); experiment: Abl kinase activity assay (fluorescent ELISA, AblTide substrate); type: biochemical
Description: The disclosed compounds were assayed for their ability to inhibit the activity of ABL kinase. Nunc Maxisorb plates are coated with streptavidin by overnight incubation with 100 μL per well of 1 μg/mL streptavidin in DPBS. Prior to the start of the experiment, the plates are washed with TBST (3×200 μL) and blocked for at least 3 hours by adding 150 μL of 5% BSA/TBST. The plates are washed with TBST (3×200 μL/well) and left dry immediately before the capture step.
The test articles and controls (Gleevec) are prepared using the following assay buffer @ 10× desired final concentration (50 mM Tris pH 7.0, 0.02 mg/ml BSA, 10 mM MgCl2, 0.1 mM Na3VO4, 1 mM EGTA, 0.01% NP-40, 1 mM DTT in 10% glycerol/water). In a reaction plate are added rapidly 5 μL test article (or control) and 30 μL ABL or ABL T315I (0.089 nM final concentration, in the above buffer). The plate is incubated for 20 minutes. To the reaction plate is added ATP (100 μM final concentration) and AblTide (128 nM final concentration) in a volume of 15 μL. The plate is incubated at room temperature for one hour.
From the reaction plate, 40 μL is transferred to the streptavidin coated plate. The capture plate is incubated at room temperature for 30 minutes then washed 3× with TBST. To the capture plate is added 100 μL/well of Cell Signaling anti-phospho tyrosine at a dilution of 1:3000 in 2% BSA/TBST. The plate is incubated for two hours at room temperature then washed 3× with TBST. To the capture plate is added 100 μL/well of Alkaline Phosphatase Tagged Goat anti Mouse Antibody at a dilution of 1:4000 in 2% BSA/TBST. The plate is incubated for one hour at room temperature then washed 3× with TBST.
The fluorescent readout was initiated by the addition of 100 μL/well of Attophos reagent (6 mg/10 mL). The reading was done on the Perkin Elmer Envision system.

Cl.c1cc2c3c(c1)c(-c1ccnc(NCC4CCNCC4)n1)cn3CCC2
melting point: 192 to 194 °C

Cl.c1cc2c3c(c1)c(-c1nnnn1C1CCNCC1)cn3CCC2
melting point: 198 to 200 °C

CCOC(=O)CNC(=O)N1CCC(CNc2nccc(-c3cn4c5c(cccc35)CCC4)n2)CC1 (as salt: trifluoroacetate) [Compound 34, ethyl 2-(4-((4-(5,6-dihydro-4H-pyrrolo[3,2,1-ij]quinolin-1-yl)pyrimidin-2-ylamino)methyl)piperidine-1-carboxamido)acetate]
melting point: 170 to 172 °C

O=S(=O)(c1ccc(Cl)cc1)N1CCC(CNc2nccc(-c3cn4c5c(cccc35)CCC4)n2)CC1 (as salt: trifluoroacetate) [Compound 35, N-((1-(4-chlorophenylsulfonyl)piperidin-4-yl)methyl)-4-(5,6-dihydro-4H-pyrrolo[3,2,1-ij]quinolin-1-yl)pyrimidin-2-amine]
melting point: 140 to 142 °C

CC(C)(C)C(=O)N1CCC(CNc2nccc(-c3cn4c5c(cccc35)CCC4)n2)CC1 (as salt: trifluoroacetate) [Compound 36, 1-(4-((4-(5,6-dihydro-4H-pyrrolo[3,2,1-ij]quinolin-1-yl)pyrimidin-2-ylamino)methyl)piperidin-1-yl)-2,2-dimethylpropan-1-one]
melting point: 170 to 172 °C

O=c1[nH][nH]c(-c2ccc3ccccc3c2)c1-c1cn2c3c(cccc13)CCC2 [Compound 13, 4-(5,6-dihydro-4H-pyrrolo[3,2,1-ij]quinolin-1-yl)-5-(2-naphthyl)-1,2-dihydro-3H-pyrazol-3-one]
inhibition at 10 µM (DLD-1): 61% | inhibition at 30 µM (FGFR2 (N549H)): 94% | inhibition at 10 µM (MDA-MB-231): 46% | inhibition at 10 µM (Abl (T315I)): 37%
